Entries after “also recorded” stand apart in the source; their conditions may differ.
Columns and labels:
Type in all cases: cell-based
[1] = test system: bovine adrenal medullary microvascular endothelial cells; assay: DNA laddering by agarose gel electrophoresis; details: DNA from cells treated with 1 μg/ml tunicamycin for 32 hours
[2] = test system: bovine adrenal medullary microvascular endothelial cells; assay: Capillary endothelial cell growth and proliferation (cell count in hemacytometer)
Description: Cells in the amount of 2.0×10^4 were seeded per well in 24-well clusters in 1 ml complete EMEM containing 10% (v/v) serum and allowed to grow for 72 hours. Media were removed and the cells were washed twice with phosphate-buffer saline, pH 7.4 (PBS). Cells were synchronized by incubating for 48 hours in 2 mM hydroxyurea in serum-free EMEM with glutamine (2 mM) and one-third of penicillin-streptomycin used in a regular culture condition, followed by incubating 24 hours in serum-free EMEM, as discussed in CAO et al., “Modified Method of Mammalian Cell Synchronization Improves Yield and Degree of Synchronization”, Exp. Cell Res., 193:405-410 (1991), the disclosure of which is herein incorporated by reference in its entirety.
(§1) For proliferation assay, cells were trypsinized and counted in a hemacytometer. Viability of cells was determined by trypan blue (0.4% (v/v)) exclusion. Statistical analysis was carried out by StatView II software (Macintosh). Quantitation of cellular differentiation was carried out by observing under a Nikon AlphaShot inverted microscope, and counting the number of capillary lumen-like structures in five randomly selected fields per sample.
Synchronized cells, as described in Example 1, were cultured at 37° C. in complete EMEM containing fetal bovine serum (1% (v/v), 2% (v/v), or 10% (v/v), or complete EMEM with 2% (v/v) fetal bovine serum containing 1 ng/ml −100 ng/ml of bFGF/FGF-2, or containing 0.5 μg/ml to 5.0 μg/ml tunicamycin (lot number 10922120-07 from Boehringer-Mannheim, Indianapolis, Ind.). In each case, the cellular growth and proliferation was monitored by trypan blue exclusion, by counting the cell number, and by their ability to process through the cell cycle by flow cytometry.
Proliferation and Differentiation of Capillary Endothelial Cells: 2.0×10^4 cells were seeded per well in 24-well clusters in 1 ml complete EMEM containing 10% (v/v) serum and allowed to grow for 72 hours. Media were removed and the cells were washed twice with phosphate-buffer saline, pH 7.4 (PBS). […] Cells were routinely monitored by light microscopy. For proliferation assay, cells were trypsinized and counted in a hemacytometer. Viability of cells was determined by trypan blue (0.4% (v/v)) exclusion. […] Quantitation of cellular differentiation was carried out by observing under a Nikon AlphaShot inverted microscope, and counting the number of capillary lumen-like structures in five randomly selected fields per sample. The results were expressed as percent of its corresponding control after normalization of cell numbers. Analysis of Cell Cycle by Flow Cytometry: Assessment of the cell cycle was determined by propidium iodide staining of fixed cell nuclei followed by flow cytometry in a FacSort (Beckton Dickinson) according to the method of Krishan (1975) as modified by Vindelov (1977), as discussed in KRISHAN, “Rapid Flow Cytometric Analysis of Mammalian Cell Cycle by Propidium Iodide Staining”, J. Cell Biol. 66:188-195 (1975); and VINDELOV, “Flow Cytometric Analysis of Nuclear DNA in Cells from Solid Tumors and Cell Suspensions”, Virchows Arch (B), 24:227-231 (1977), the disclosures of which are herein incorporated by reference in their entireties. […]

[3] = test system: bovine adrenal medullary microvascular endothelial cells; assay: Cell viability by trypan blue exclusion; details: under tunicamycin exposure (0.5-5.0 μg/ml, 32 hours)
Description: as §1
Proliferation and Differentiation of Capillary Endothelial Cells: 2.0×10^4 cells were seeded per well in 24-well clusters in 1 ml complete EMEM containing 10% (v/v) serum and allowed to grow for 72 hours. Media were removed and the cells were washed twice with phosphate-buffer saline, pH 7.4 (PBS). […] Cells were routinely monitored by light microscopy. For proliferation assay, cells were trypsinized and counted in a hemacytometer. Viability of cells was determined by trypan blue (0.4% (v/v)) exclusion. […] Quantitation of cellular differentiation was carried out by observing under a Nikon AlphaShot inverted microscope, and counting the number of capillary lumen-like structures in five randomly selected fields per sample. The results were expressed as percent of its corresponding control after normalization of cell numbers. […] After FacSort calibration, 3000 events were counted per sample. […]

Substance: tunicamycin
- DNA laddering [1]: appearance of laddering
- effect on cell number / proliferation ([2]; 1 μg/ml tunicamycin, 2% (v/v) serum, monitored up to 5 days): reduced the cell proliferation; also recorded: number of cells started declining; also recorded: started declining, and almost disappeared
- reversibility of growth reduction ([2]; tunicamycin 0.5-5.0 μg/ml): reversible
- total adherent cells viable [3]: more than 70%
